Read-outs that look alike come from different tables or passages of the source.
How the values were obtained:
[1] = tested on: Platelet aggregation (rabbit platelet rich plasma); assay: Platelet aggregation in vitro (rabbit platelet rich plasma, ADP- or collagen-induced); format: cell-based; conditions: Oryctolagus cuniculus, rabbit PRP, pH 7.4, 37° C.
Description: Platelet rich plasma (PRP) which contains 6-7×10^8 platelets/ml was prepared from rabbit blood. To the 200 μl of PRP, 5 μl of calcium chloride (1 mM) and 50 μl of 25 mM Tris-acetate solution (pH 7.4) containing 120 mM NaCl or test compound were added successively, and then stirred for 2 min. at 37° C. To the solution, 5 μl of adenosine diphosphate (ADP) (2.5 μM) or collagen (2.5 μg/ml) was added to an aggregation inducer. Aggregation was measured by using an aggregometer (NKK HEMATRACER 1). Activities of inhibitors (test compounds) were expressed as ID50 values i.e. Doses required to inhibit the platelet aggregation responses by 50%.

[2] = tested on: Platelet aggregation (rat blood); assay: Platelet aggregation ex vivo (collagen-induced, after oral administration); format: in vivo, Male Sprague-Dawley rats; conditions: one hour after administration, collagen 5.0 μg/ml
Description: Male Sprague-Dawley rats weighing about 250 g were used after overnight fasting. One hour after oral administration of test compound or vehicle of test compound (control), blood was collected into a tube containing 0.1 vol. of 3.8% sodium citrate. To the 0.45 ml of blood, 0.05 ml of collagen (final concentration 5.0 μg/ml) was added and then incubated for 5 min. at 37° C. under shaking.
The reaction was terminated by addition of 1 ml of 10 mM phosphate buffered saline (pH 7.4) containing 11.5 mM EDTA and 1% formalin. The reaction mixture was centrifuged at 70 xg for 5 min. and platelet count of upper phase was measured by Technicon Auto Analizer.
Platelet aggregation was calculated according to the following formula: [formula] A; Platelet count after addition of vehicle of collagen B; Platelet count after addition of collagen
Inhibition of the test compound was calculated according to the following formula; [formula] C; Platelet aggregation (%) of control D; Platelet aggregation (%) of Test compound

IC50 ([1]; inducer ADP (2.5 μM), read-out: ID50 ADP): 55 µM
IC50 ([1]; inducer collagen (2.5 μg/ml), read-out: ID50 Collagen): 37 µM
SMILES: CN1CCN(C(=O)Cn2c(=O)sc3ncc(Cl)cc32)CC1 [Example 2, 6-chloro-2-oxo-1-[(4-methyl-1-piperazinyl)carbonylmethyl]-1,2-dihydrothiazolo[5,4-b]pyridine]
Inhibition (%) ([2]; 10 mg/kg oral): 8%
Inhibition (%) ([2]; 32 mg/kg oral): 103%
Inhibition (%) ([2]; 100 mg/kg oral): 121%
